Measurements taken from patent US10100058B2, “Fused heterocyclic compounds as CaM kinase inhibitors” (Gilead Sciences, Inc., priority 2016, dated 2018).

Molecular target: recombinant CaMKIIδ (Homo sapiens (Human), UniProt Q13557)
Assay: CaMKIIδ biochemical assay (HTRF)
Settings: 10 pM CaMKIIδ, 110 nM calmodulin, 12 μM ATP, 1 hour; read-out: CAMKIID-HTRF-384V2 (IC50 - nM)
Description: CaMKIIδ Biochemical Assay
The biochemical activity of recombinant CaMKIIδ was measured by monitoring the phosphorylation of a target peptide using Homogenous Time Resolved Fluorescence (HTRF) technology from CisBio Bioassays.

SMILES	IC50
CCN(CC)[C@@H](C)CNC(=O)c1cc(-c2cnn3ccc(-c4cccs4)nc23)nc(N2CC[C@H]2C(=O)NCC(F)(F)F)c1 [Example 283, N—((S)-2-(diethylamino)propyl)-2-(5-(thiophen-2-yl)pyrazolo[1,5-a]pyrimidin-3-yl)-6-((S)-2-((2,2,2-trifluoroethyl)carbamoyl)azetidin-1-yl)isonicotinamide]	1.37 nM
CCN(CC)[C@@H](C)CNC(=O)c1cc(-c2cnn3ccc(-c4cccs4)nc23)nc(N2CC[C@H]2C(=O)N2CC(F)C2)c1 [Example 284, N—((S)-2-(diethylamino)propyl)-2-((S)-2-(3-fluoroazetidine-1-carbonyl)azetidin-1-yl)-6-(5-(thiophen-2-yl)pyrazolo[1,5-a]pyrimidin-3-yl)isonicotinamide]	0.18 nM
CCN(CC)[C@@H](C)CNC(=O)c1cc(-c2cnn3ccc(-c4cccs4)nc23)nc(N2CC[C@H]2C(=O)N2CC3CC3C2)c1 (stereo partly drawn) [Example 285, 2-((2S)-2-(3-azabicyclo[3.1.0]hexane-3-carbonyl)azetidin-1-yl)-N—((S)-2-(diethylamino)propyl)-6-(5-(thiophen-2-yl)pyrazolo[1,5-a]pyrimidin-3-yl)isonicotinamide]	0.42 nM
CCN(CC)[C@@H](C)CNC(=O)c1cc(-c2cnn3ccc(-c4cccs4)nc23)nc(N2CC[C@H]2C(=O)N2CC(NS(C)(=O)=O)C2)c1 [Example 286, N—((S)-2-(diethylamino)propyl)-2-((S)-2-(3-(methylsulfonamido)azetidine-1-carbonyl)azetidin-1-yl)-6-(5-(thiophen-2-yl)pyrazolo[1,5-a]pyrimidin-3-yl)isonicotinamide]	0.16 nM
CCN(CC)[C@@H](C)CNC(=O)c1cc(-c2cnn3ccc(-c4cccs4)nc23)nc(N2CC[C@H]2C(=O)N(C)OC)c1 [Example 287, N—((S)-2-(diethylamino)propyl)-2-((S)-2-(methoxy(methyl)carbamoyl)azetidin-1-yl)-6-(5-(thiophen-2-yl)pyrazolo[1,5-a]pyrimidin-3-yl)isonicotinamide]	0.33 nM
CCN(CC)[C@@H](C)CNC(=O)c1cc(-c2cnn3ccc(-c4cccs4)nc23)nc(N2CC[C@H]2C(=O)N2CCCC2)c1 [Example 288, N—((S)-2-(diethylamino)propyl)-2-((S)-2-(pyrrolidine-1-carbonyl)azetidin-1-yl)-6-(5-(thiophen-2-yl)pyrazolo[1,5-a]pyrimidin-3-yl)isonicotinamide]	0.29 nM
CCN(CC)[C@@H](C)CNC(=O)c1cc(-c2cnn3ccc(-c4cccs4)nc23)nc(N2CC[C@H]2C(=O)NOC)c1 [Example 289, N—((S)-2-(diethylamino)propyl)-2-((S)-2-(methoxycarbamoyl)azetidin-1-yl)-6-(5-(thiophen-2-yl)pyrazolo[1,5-a]pyrimidin-3-yl)isonicotinamide]	0.65 nM
CCN(CC)[C@@H](C)CNC(=O)c1cc(-c2cnn3ccc(-c4cccs4)nc23)nc(N2CC[C@@H]2C(=O)NC)c1 [Example 290, N—((S)-2-(diethylamino)propyl)-2-((R)-2-(methylcarbamoyl)azetidin-1-yl)-6-(5-(thiophen-2-yl)pyrazolo[1,5-a]pyrimidin-3-yl)isonicotinamide]	14.1 nM
CCN(CC)[C@@H](C)CNC(=O)c1cc(-c2cnn3ccc(-c4cccs4)nc23)nc(N2CC[C@H]2C(=O)Nc2nccs2)c1 [Example 291, N—((S)-2-(diethylamino)propyl)-2-((S)-2-(thiazol-2-ylcarbamoyl)azetidin-1-yl)-6-(5-(thiophen-2-yl)pyrazolo[1,5-a]pyrimidin-3-yl)isonicotinamide]	3.55 nM
CCN(CC)[C@@H](C)CNC(=O)c1cc(-c2cnn3ccc(-c4cccs4)nc23)nc(N2CC[C@H]2C(=O)N2CC(C)(C)C2)c1 [Example 292, N—((S)-2-(diethylamino)propyl)-2-((S)-2-(3,3-dimethylazetidine-1-carbonyl)azetidin-1-yl)-6-(5-(thiophen-2-yl)pyrazolo[1,5-a]pyrimidin-3-yl)isonicotinamide]	0.58 nM
CCN(CC)[C@@H](C)CNC(=O)c1cc(-c2cnn3ccc(-c4cccs4)nc23)nc(N2CC[C@H]2C(=O)N2CCOCC2)c1 [Example 293, N—((S)-2-(diethylamino)propyl)-2-((S)-2-(morpholine-4-carbonyl)azetidin-1-yl)-6-(5-(thiophen-2-yl)pyrazolo[1,5-a]pyrimidin-3-yl)isonicotinamide]	0.16 nM
CCN(CC)[C@@H](C)CNC(=O)c1cc(-c2cnn3ccc(-c4cccs4)nc23)nc(N2CC[C@H]2C(=O)N2CC(F)(F)C2)c1 [Example 294, N—((S)-2-(diethylamino)propyl)-2-((S)-2-(3,3-difluoroazetidine-1-carbonyl)azetidin-1-yl)-6-(5-(thiophen-2-yl)pyrazolo[1,5-a]pyrimidin-3-yl)isonicotinamide]	0.22 nM

Further lines, results first:

IC50	SMILES
0.25 nM	CCN(CC)[C@@H](C)CNC(=O)c1cc(-c2cnn3ccc(-c4cccs4)nc23)nc(N2CC[C@H]2C(=O)N2CC(OC)C2)c1 [Example 295, N—((S)-2-(diethylamino)propyl)-2-((S)-2-(3-methoxyazetidine-1-carbonyl)azetidin-1-yl)-6-(5-(thiophen-2-yl)pyrazolo[1,5-a]pyrimidin-3-yl)isonicotinamide]
1.93 nM	CCN(CC)[C@@H](C)CNC(=O)c1cc(-c2cnn3ccc(-c4cccs4)nc23)nc(N2CC[C@H]2C(=O)O)c1 [Example 296, (S)-1-(4-(((S)-2-(diethylamino)propyl)carbamoyl)-6-(5-(thiophen-2-yl)pyrazolo[1,5-a]pyrimidin-3-yl)pyridin-2-yl)azetidine-2-carboxylic Acid]
0.23 nM	CCN(CC)[C@@H](C)CNC(=O)c1cc(-c2cnn3ccc(-c4cccs4)nc23)nc(N2CC[C@H]2C(=O)N(C)O)c1 [Example 298, N—((S)-2-(diethylamino)propyl)-2-((S)-2-(hydroxy(methyl)carbamoyl)azetidin-1-yl)-6-(5-(thiophen-2-yl)pyrazolo[1,5-a]pyrimidin-3-yl)isonicotinamide]
0.22 nM	CCN(CC)[C@@H](C)CNC(=O)c1cc(-c2cnn3ccc(-c4cccs4)nc23)nc(N2CC[C@H]2C(N)=O)c1 [Example 299, 2-((S)-2-carbamoylazetidin-1-yl)-N—((S)-2-(diethylamino)propyl)-6-(5-(thiophen-2-yl)pyrazolo[1,5-a]pyrimidin-3-yl)isonicotinamide]
0.58 nM	CCN(CC)[C@@H](C)CNC(=O)c1cc(-c2cnn3ccc(-c4cccs4)nc23)nc(N2CC[C@H]2C(=O)NCC#N)c1 [Example 300, 2-((S)-2-((cyanomethyl)carbamoyl)azetidin-1-yl)-N—((S)-2-(diethylamino)propyl)-6-(5-(thiophen-2-yl)pyrazolo[1,5-a]pyrimidin-3-yl)isonicotinamide]
0.48 nM	CCN(CC)[C@@H](C)CNC(=O)c1cc(-c2cnn3ccc(-c4cccs4)nc23)nc(N2CC[C@H]2C(=O)NCCOC)c1 [Example 301, N—((S)-2-(diethylamino)propyl)-2-((S)-2-((2-methoxyethyl)carbamoyl)azetidin-1-yl)-6-(5-(thiophen-2-yl)pyrazolo[1,5-a]pyrimidin-3-yl)isonicotinamide]
